Source: ChEMBL document CHEMBL3784939, “Study on the synthesis and biological activities of α-substituted arylacetates derivatives” (Bioorg Med Chem Lett, 2016)
Values after ≈ are worked out from the molar mass of the structure shown. Active and inactive are the calls of the source. No cut-off for these calls is given here.

Tests used:
[1] = Inhibition of alpha glucosidase (unknown origin) at 100 uM preincubated for 15 mins followed by p-nitrophenyl-alpha-D-glucopyranoside addition measured after 30 mins by spectrophotometric analysis; conditions: Homo sapiens
[2] = Cytotoxicity against human BCG823 cells after 72 hrs by MTT assay; type: functional, cell-based; conditions: BCG823, 72 h
[3] = Cytotoxicity against human HCT116 cells after 72 hrs by MTT assay; type: functional, cell-based; conditions: HCT-116, 72 h
NCI-H1650 = test: Cytotoxicity against human NCI-H1650 cells after 72 hrs by MTT assay; type: functional, cell-based; conditions: NCI-H1650, 72 h
[4] = Inhibition of alpha glucosidase (unknown origin) preincubated for 15 mins followed by p-nitrophenyl-alpha-D-glucopyranoside addition measured after 30 mins by spectrophotometric analysis; set-up: species or system Homo sapiens
Rattus norvegicus [5] = test: Hypoglycemic activity in diabetic rat model assessed as decrease in blood glucose level at 360 mg/kg, ig administered for 12 days measured on third day of compound dosing by glucometer relative to control; type: functional; conditions: po, 288 h
Rattus norvegicus [6] = test: Hypoglycemic activity in diabetic rat model assessed as blood glucose level at 360 mg/kg, ig administered for 12 days measured on day 9 of compound dosing by glucometer (reference value: 21.95 +/- 2.83 mmol/l); type: functional
Rattus norvegicus [7] = test: Hypoglycemic activity in diabetic rat model assessed as decrease in blood glucose level at 360 mg/kg, ig administered for 12 days measured on sixth day of compound dosing by glucometer relative to control; type: functional; conditions: po, 288 h
Rattus norvegicus [8] = test: Hypoglycemic activity in diabetic rat model assessed as blood glucose level at 360 mg/kg, ig administered for 12 days measured on day 12 by glucometer (reference value: 21.95 +/- 2.83 mmol/l); type: functional
Rattus norvegicus [9] = test: Hypoglycemic activity in diabetic rat model assessed as decrease in blood glucose level at 20 mg/kg, ig administered for 12 days measured on ninth day of compound dosing by glucometer relative to control; type: functional; conditions: po, 288 h
Rattus norvegicus [10] = test: Hypoglycemic activity in diabetic rat model assessed as decrease in blood glucose level at 20 mg/kg, ig administered for 12 days measured on third day of compound dosing by glucometer relative to control; type: functional; conditions: po, 288 h
Rattus norvegicus [11] = test: Hypoglycemic activity in diabetic rat model assessed as decrease in blood glucose level at 20 mg/kg, ig administered for 12 days measured on twelfth day by glucometer relative to control; type: functional; conditions: po, 288 h
Rattus norvegicus [12] = test: Hypoglycemic activity in diabetic rat model assessed as decrease in blood glucose level at 20 mg/kg, ig administered for 12 days measured on sixth day of compound dosing by glucometer relative to control; type: functional; conditions: po, 288 h
Rattus norvegicus [13] = test: Hypoglycemic activity in diabetic rat model assessed as blood glucose level at 360 mg/kg, ig administered for 12 days measured on day 6 of compound dosing by glucometer (reference value: 21.95 +/- 2.83 mmol/l); type: functional
Rattus norvegicus [14] = test: Hypoglycemic activity in diabetic rat model assessed as decrease in blood glucose level at 360 mg/kg, ig administered for 12 days measured on twelfth day by glucometer relative to control; type: functional; conditions: po, 288 h
Rattus norvegicus [15] = test: Hypoglycemic activity in diabetic rat model assessed as decrease in blood glucose level at 360 mg/kg, ig administered for 12 days measured on ninth day of compound dosing by glucometer relative to control; type: functional; conditions: po, 288 h
[16] = Noncompetitive inhibition of alpha glucosidase (unknown origin) preincubated for 15 mins followed by p-nitrophenyl-alpha-D-glucopyranoside addition measured after 30 mins by Lineweaver-Burk plot analysis; set-up: species or system Homo sapiens
Rattus norvegicus [17] = test: Hypoglycemic activity in diabetic rat model assessed as decrease in blood glucose level at 100 mg/kg, ig administered for 12 days measured on third day of compound dosing by glucometer relative to control; type: functional; conditions: po, 288 h
Rattus norvegicus [18] = test: Hypoglycemic activity in diabetic rat model assessed as decrease in blood glucose level at 100 mg/kg, ig administered for 12 days measured on twelfth day by glucometer relative to control; type: functional; conditions: po, 288 h
Rattus norvegicus [19] = test: Hypoglycemic activity in diabetic rat model assessed as decrease in blood glucose level at 100 mg/kg, ig administered for 12 days measured on sixth day of compound dosing by glucometer relative to control; type: functional; conditions: po, 288 h
Rattus norvegicus [20] = test: Hypoglycemic activity in diabetic rat model assessed as decrease in blood glucose level at 100 mg/kg, ig administered for 12 days measured on ninth day of compound dosing by glucometer relative to control; type: functional; conditions: po, 288 h

Structure (SMILES) | inhibition [1] | IC50 [2] [µg/mL] | IC50 [3] [µg/mL] | IC50 (NCI-H1650) [µg/mL] | IC50 [4] [µM] | other results
COC(=O)C(/C=N/NC(N)=S)c1ccccc1 (configuration not stated) | 19.8% | 0.00818 (≈ 0.0325 µM) | 0.00321 (≈ 0.0128 µM) | 0.00325 (≈ 0.0129 µM) | > 200 | 
COC(=O)C(COC(=O)/C=C/c1ccc(OC)c(OC)c1)c1ccccc1 (configuration not stated) | 11.1% | > 0.01 | > 0.01 | > 0.01 | > 200 | inhibition in vivo at 360 mg/kg (Rattus norvegicus [5]): 7.86%; Activity (Rattus norvegicus [6]): 20.44 mmol/L; inhibition in vivo at 360 mg/kg (Rattus norvegicus [7]): 7.86%; Activity (Rattus norvegicus [8]): 20.76 mmol/L
CCC1=C(C)CN(C(=O)NCCc2ccc(S(=O)(=O)NC(=O)N[C@H]3CC[C@H](C)CC3)cc2)C1=O [GLIMEPIRIDE] |  |  |  |  |  | inhibition in vivo at 20 mg/kg (Rattus norvegicus [9]): 7.86%; inhibition in vivo at 20 mg/kg (Rattus norvegicus [10]): 7.86%; inhibition in vivo at 20 mg/kg (Rattus norvegicus [11]): 7.86%; inhibition in vivo at 20 mg/kg (Rattus norvegicus [12]): 7.86%
COC(=O)C(/C=N/NC(N)=S)c1ccc(C)cc1 (configuration not stated) | 20.8% | 0.00522 (≈ 0.0197 µM) | > 0.01 | 0.00534 (≈ 0.0201 µM) | 190 | 
COC(=O)C(CO)c1ccc(C)cc1 (configuration not stated) | 14.6% | > 0.01 | > 0.01 | > 0.01 | > 200 | inhibition in vivo at 360 mg/kg (Rattus norvegicus [5]): 7.86%; Activity (Rattus norvegicus [13]): 21.66 mmol/L; Activity (Rattus norvegicus [6]): 21.76 mmol/L; Activity (Rattus norvegicus [8]): 21.4 mmol/L
CCOC(=O)C(/C=N/NC(N)=S)c1ccc(C(F)(F)F)cc1 (configuration not stated) | 34% | > 0.01 | 0.00367 (≈ 0.011 µM) | 0.00805 (≈ 0.0241 µM) | 137 | 
CCOC(=O)C(/C=N/NC(N)=S)c1ccc(F)cc1 (configuration not stated) | 65.3% | 0.00727 (≈ 0.0257 µM) | 0.00191 (≈ 0.00674 µM) | 0.00198 (≈ 0.00699 µM) | 46.8 | inhibition in vivo at 360 mg/kg (Rattus norvegicus [14]): 18.1%; inhibition in vivo at 360 mg/kg (Rattus norvegicus [5]): 10.3%; inhibition in vivo at 360 mg/kg (Rattus norvegicus [15]): 16.9%; inhibition in vivo at 360 mg/kg (Rattus norvegicus [7]): 7.86%; Ki [16]: 65.4 µM
COC(=O)C(COC(=O)c1ccccc1)c1ccccc1 (configuration not stated) | 12.9% | > 0.01 | > 0.01 | > 0.01 | > 200 | 
CCOC(=O)C(C=O)c1ccc(C(F)(F)F)cc1 (configuration not stated) | inactive | > 0.01 | > 0.01 | > 0.01 |  | 
CN(C)C(=N)NC(=N)N [METFORMIN] |  |  |  |  |  | inhibition in vivo at 100 mg/kg (Rattus norvegicus [17]): 7.86%; inhibition in vivo at 100 mg/kg (Rattus norvegicus [18]): 7.86%; inhibition in vivo at 100 mg/kg (Rattus norvegicus [19]): 7.86%; inhibition in vivo at 100 mg/kg (Rattus norvegicus [20]): 7.86%
CCOC(=O)C(COC(=O)/C=C/c1ccc(OC)c(OC)c1)c1ccc(F)cc1 (configuration not stated) | 47.8% | > 0.01 | > 0.01 | > 0.01 | 83.8 | inhibition in vivo at 360 mg/kg (Rattus norvegicus [14]): 19%; inhibition in vivo at 360 mg/kg (Rattus norvegicus [5]): 7.86%; inhibition in vivo at 360 mg/kg (Rattus norvegicus [15]): 7.86%; inhibition in vivo at 360 mg/kg (Rattus norvegicus [7]): 7.86%
CCOC(=O)C(/C=N/OC)c1ccc(C(F)(F)F)cc1 (configuration not stated) | inactive | > 0.01 | > 0.01 | > 0.01 |  | 
CCOC(=O)C(COC(=O)/C=C/c1ccc(OC)c(OC)c1)c1ccc(C(F)(F)F)cc1 (configuration not stated) | 29.9% | > 0.01 | > 0.01 | > 0.01 | 191 | 
CCOC(=O)C(CO)c1ccc(F)cc1 (configuration not stated) | 19.2% | > 0.01 | > 0.01 | > 0.01 | > 200 | 
CCOC(=O)C(CO)c1ccc(C(F)(F)F)cc1 (configuration not stated) | inactive | > 0.01 | > 0.01 | > 0.01 |  | 
OC[C@H]1NC[C@H](O)[C@@H](O)[C@@H]1O [DUVOGLUSTAT] | 52.5% |  |  |  | 109 | 
CCOC(=O)C(COC(=O)c1ccccc1OC(C)=O)c1ccc(F)cc1 (configuration not stated) | 15.8% | > 0.01 | > 0.01 | > 0.01 | > 200 | 
CCOC(=O)C(COC(=O)c1ccccc1OC(C)=O)c1ccc(C(F)(F)F)cc1 (configuration not stated) | 14.1% | > 0.01 | > 0.01 | > 0.01 | > 200 | 
CCOC(=O)C(C=O)c1ccc(F)cc1 (configuration not stated) | 20.4% | > 0.01 | > 0.01 | > 0.01 | 183 | 
CCOC(=O)C(COC(=O)c1ccccc1)c1ccc(C(F)(F)F)cc1 (configuration not stated) | 16.8% | > 0.01 | > 0.01 | > 0.01 | > 200 | 
COC(=O)C(CO)c1ccccc1 (configuration not stated) | 28.7% | > 0.01 | > 0.01 | > 0.01 | 186 | 
COC(=O)C(COC(=O)c1ccccc1OC(C)=O)c1ccccc1 (configuration not stated) | 13.7% | > 0.01 | > 0.01 | > 0.01 | > 200 | 
COC(=O)C(C=O)c1ccccc1 (configuration not stated) | 15.3% | > 0.01 | > 0.01 | > 0.01 | > 200 | 
COC(=O)C(/C=N/NC(N)=S)c1ccc(OC)cc1 (configuration not stated) | 14.4% | > 0.01 | 0.0088 (≈ 0.0313 µM) | 0.0025 (≈ 0.00889 µM) | > 200 | 
CCOC(=O)C(COC(=O)c1ccccc1)c1ccc(F)cc1 (configuration not stated) | 27.3% | > 0.01 | > 0.01 | > 0.01 | > 200 | 
COC(=O)C(CO)c1ccc(OC)cc1 (configuration not stated) | inactive | > 0.01 | > 0.01 | > 0.01 |  | 
COC(=O)C(C=O)c1ccc(C)cc1 (configuration not stated) | 29.3% | > 0.01 | > 0.01 | > 0.01 | 185 | 
CCOC(=O)C(/C=N/OC)c1ccc(F)cc1 (configuration not stated) | inactive | > 0.01 | > 0.01 | > 0.01 |  | 
COC(=O)C(C=O)c1ccc(OC)cc1 (configuration not stated) | 18.4% | > 0.01 | > 0.01 | > 0.01 | > 200 | 
